One assay deals with T1, AR T878A (Homo sapiens, UniProt P10275, T878A).
T1 construct: LNCaP cells expressing AR T878A; endogenous in cells; host or cells: LNCaP-luc (LNCaP stably carrying the Cignal Lenti AR Reporter)
T1 sequence (P10275 1-920 T878A): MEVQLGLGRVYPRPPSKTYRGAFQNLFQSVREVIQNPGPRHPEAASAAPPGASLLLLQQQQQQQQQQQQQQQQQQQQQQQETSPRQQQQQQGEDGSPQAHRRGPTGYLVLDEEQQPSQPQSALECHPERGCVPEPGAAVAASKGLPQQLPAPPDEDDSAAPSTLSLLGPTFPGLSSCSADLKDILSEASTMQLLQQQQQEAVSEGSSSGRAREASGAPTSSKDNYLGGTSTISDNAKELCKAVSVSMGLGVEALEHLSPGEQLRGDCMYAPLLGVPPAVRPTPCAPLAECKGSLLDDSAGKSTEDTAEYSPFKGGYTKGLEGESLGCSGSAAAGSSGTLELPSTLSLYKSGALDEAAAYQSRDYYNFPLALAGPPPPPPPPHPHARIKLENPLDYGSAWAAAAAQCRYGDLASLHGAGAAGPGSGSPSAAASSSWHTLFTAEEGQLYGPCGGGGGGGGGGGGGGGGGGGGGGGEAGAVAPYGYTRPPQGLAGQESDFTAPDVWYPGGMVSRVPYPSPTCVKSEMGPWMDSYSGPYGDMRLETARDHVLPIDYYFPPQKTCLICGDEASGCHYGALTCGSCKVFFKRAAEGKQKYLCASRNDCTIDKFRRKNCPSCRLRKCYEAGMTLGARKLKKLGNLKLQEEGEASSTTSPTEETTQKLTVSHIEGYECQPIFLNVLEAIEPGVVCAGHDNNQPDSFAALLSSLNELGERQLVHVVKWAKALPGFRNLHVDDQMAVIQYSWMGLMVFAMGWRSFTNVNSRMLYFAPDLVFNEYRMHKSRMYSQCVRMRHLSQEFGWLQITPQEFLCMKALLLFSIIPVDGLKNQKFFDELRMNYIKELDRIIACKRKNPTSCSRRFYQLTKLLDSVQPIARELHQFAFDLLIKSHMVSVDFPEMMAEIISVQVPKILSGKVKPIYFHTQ
Put plainly: cell-based. The format is cell-based. The source says: We generated a LNCaP cell line stably expressing luciferase controlled by androgen response elements (ARE-luciferase).
Cell Culture and Treatments. The LNCaP cell line were obtained from ATCC, cultured in RPMI1640 (Corning) supplemented with 10% heat-inactivated GemCell bovine serum (Gemini Bio-Products) and Penicillin-Streptomycin (Gemini Bio-Products). Cell lines stably expressing ARE-luciferase (LNCaP-luc) was generated using Cignal Lenti AR Reporter (Qiagen) and was continuously cultured with 500 ng/mL Puromycin (Gibco) for positive selection. Cells were maintained at 37° C. in a humidified incubator with 5% carbon dioxide. All cell lines were authenticated using NIST approved short tandem repeat (STR) DNA profiling performed by the University of Arizona Genetics Core and routinely tested negative for mycoplasma.
Luciferase assay. LNCaP-luc cells were seeded in clear flat bottom white polystyrene 96-well plates (Corning) at a density of 12,000 cells/well. […] Dose-response curves were fit using the delta method and t-distribution (n=1). Compounds are tested up to 10 μM.

A further assay deals with T2, AR (Rattus norvegicus, UniProt P15207).
T2 construct: purchased Thermo Fisher Scientific
T2 sequence (P15207 646-902 limits assumed): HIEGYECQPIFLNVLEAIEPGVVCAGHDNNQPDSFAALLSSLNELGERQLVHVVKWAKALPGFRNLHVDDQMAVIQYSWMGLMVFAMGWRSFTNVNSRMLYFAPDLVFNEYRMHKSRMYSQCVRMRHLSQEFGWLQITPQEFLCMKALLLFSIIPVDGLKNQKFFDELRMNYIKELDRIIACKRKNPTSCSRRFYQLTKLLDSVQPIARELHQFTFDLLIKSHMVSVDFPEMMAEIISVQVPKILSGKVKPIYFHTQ
Put plainly: AR binding, PolarScreen AR Competitor Assay (fluorescence polarization). The protocol:
AR Binding. Ligand binding was analyzed using the PolarScreen AR Competitor Assay Kit, Green, according to the manufacturer's instructions (Thermo Fisher Scientific). Fluorescence polarization was measured after a 4-h incubation using an EnVision 2103 Multilabel Plate Reader (PerkinElmer).
A general note: In fluorescence polarisation assays a small probe gives low polarisation when free and higher when bound to something large.

Another assay relates to VCaP cells. The assay can be described thus: VCaP viability assay (CellTiter-Glo). In kind it is cell-based. Conditions: Homo sapiens, VCaP. The method, then:
PC3 and VCaP cell lines were obtained from ATCC and cultured as recommended. Generation and culture of PC3 GFP-AR cells were described previously (14). ARE-luciferase cells were generated using Cignal Lenti AR Reporter (Qiagen). Cell lines were authenticated using NIST-approved short tandem repeat DNA profiling and tested negative for mycoplasma. Drug treatments were conducted after overnight culture in phenol red-free media supplemented with charcoal:dextran stripped FBS.
Luminometer Assays. For ARE-luciferase, luciferase substrate was added to lysed cells after 24-h treatment. For viability, cells were lysed with CellTiter-Glo 3D Cell Viability Assay (Promega) after 6 d of treatment. Measurements were performed in 96-well plates (Corning) using a GloMax 96 Microplate Luminometer (Promega).
A general note: Cellular ATP, detected with luciferase, serves as a proxy for viable cell number.

Like-named read-outs stand apart in the source and are kept apart here.

As a reminder, the EC50 is the midpoint of the concentration-response curve. What is called Emax is the size of the effect at its maximum, as opposed to the concentration needed. The term IC50 denotes the concentration that gives 50% inhibition.

With `Cc1c(N2C(=O)[C@@H]3[C@H](C2=O)[C@@]2(C)C[C@@H](NC(=O)c4cc(C(C)O)[nH]n4)[C@]3(C)O2)ccc(C#N)c1C(F)(F)F` (stereo partly drawn) [EITM-1712, N-((3aR,4R,5R,7R,7 aS)-2-(4-cyano-2-methyl-3-(trifluoromethyl)phenyl)-4,7-dimethyl-1,3-dioxooctahydro-1H-4,7-epoxyisoindol-5-yl)-5-(1-hydroxyethyl)-1H-pyrazole-3-carboxamide], at AR T878A, the “AR agonism / antagonism in LNCaP ARE-luciferase, in words” value (“AR agonism / antagonism” below) is “pure antagonists” and it took 2130 nM to reach a half-maximal effect (EC50). Further, the Emax on AR T878A (LNCaP) is 38%.
With “3-(4-acetylpiperazin-1-yl)-N-((3aR,4R,5R,7R,7aS)-2-(4-cyano-3-(trifluoromethyl)phenyl)-4,7-dimethyl-1,3-dioxooctahydro-1H-4,7-epoxyisoindol-5-yl)propenamide [EITM-1716]”, on AR T878A, the ED50 entry is “No binding (IC50 > 5 μM)” and the Emax result is reported as “No binding”. In addition, on AR, the “binding to AR in vitro, in words” value was “did not bind AR”. The IC50 on AR (printed inside the ED50 cell of Table 2, read-out: IC50 (No binding)) was above 5000 nM.
At AR T878A, `C[C@]12O[C@](C)(C[C@H]1NC(=O)c1cc(-c3ccco3)[nH]n1)[C@H]1C(=O)N(c3ccc(C#N)c(C(F)(F)F)c3)C(=O)[C@H]12` [EITM-1711, N-((3aR,4R,5R,7R,7 aS)-2-(4-cyano-3-(trifluoromethyl)phenyl)-4,7-dimethyl-1,3-dioxooctahydro-1H-4,7-epoxyisoindol-5-yl)-5-(furan-2-yl)-1H-pyrazole-3-carboxamide] had an EC50 of 535 nM. The same molecule came in with an Emax at AR T878A (LNCaP) of 1%. For the same molecule, at AR, the “binding to AR in vitro, in words” value is “appeared to accommodate”.
On to `CC(O)c1cc(C(=O)N[C@@H]2C[C@@]3(C)O[C@]2(C)[C@@H]2C(=O)N(c4ccc(C#N)c(C(F)(F)F)c4)C(=O)[C@@H]23)n[nH]1` (stereo partly drawn) [EITM-1704, N-((3aR,4R,5R,7R,7aS)-2-(4-cyano-3-(trifluoromethyl)phenyl)-4,7-dimethyl-1,3-dioxooctahydro-1H-4,7-epoxyisoindol-5-yl)-5-(1-hydroxyethyl)-1H-pyrazole-3-carboxamide], for which, at AR T878A, the “AR agonism / antagonism” value is “robust antagonistic activities without notable agonism” and the midpoint of the response, the EC50, lay at 3700 nM. The same molecule returned an Emax on AR T878A (LNCaP) of 11%.
Consider `CCS(=O)(=O)Nc1ccc2c(c1)C(=O)N(c1ccc(C#N)c(C(F)(F)F)c1)C2=O` [EITM-1708, N-(2-(4-cyano-3-(trifluoromethyl)phenyl)-1,3-dioxoisoindolin-5-yl)ethanesulfonamide], for which, on AR T878A, the ED50 result is reported as “No binding” and the Emax entry is on record as “No binding”. Further, the “binding to AR in vitro, in words” value on AR is reported as “did not bind to AR”.
Consider `CC(=O)N1CCC(C(=O)N[C@@H]2C[C@@]3(C)O[C@]2(C)[C@@H]2C(=O)N(c4ccc(C#N)c(C(F)(F)F)c4)C(=O)[C@@H]23)CC1` [EITM-1717, 1-acetyl-N-((3aR,4R,5R,7R,7aS)-2-(4-cyano-3-(trifluoromethyl)phenyl)-4,7-dimethyl-1,3-dioxooctahydro-1H-4,7-epoxyisoindol-5-yl)piperidine-4-carboxamide], for which, on AR T878A, the ED50 entry is listed as “No binding” and the Emax entry is on record as “No binding”. The “binding to AR in vitro, in words” value on AR is recorded as “did not bind AR”.
On to `CCS(=O)(=O)N[C@@H]1C[C@@]2(C)O[C@]1(C)[C@@H]1C(=O)N(c3ccc(C#N)c(C(F)(F)F)c3F)C(=O)[C@@H]12` [EITM-1705, N-((3aR,4R,5R,7R,7aS)-2-(4-cyano-2-fluoro-3-(trifluoromethyl)phenyl)-4,7-dimethyl-1,3-dioxooctahydro-1H-4,7-epoxyisoindol-5-yl)ethanesulfonamide], for which, on AR T878A, the “AR agonism / antagonism” value is reported as “displayed notable AR agonism”; the ED50 result is “agonist”; the Emax result is recorded as “agonist”.
`C[C@]12O[C@](C)(C[C@H]1NC(=O)c1c[nH]c3ccccc13)[C@H]1C(=O)N(c3ccc(C#N)c(C(F)(F)F)c3)C(=O)[C@H]12` [(R)-1720] registered an IC50 in the assay with VCaP cells of 160 nM.
`C[C@]12O[C@](C)(C[C@H]1NC(=O)c1n[nH]c3ccccc13)[C@H]1C(=O)N(c3ccc(C#N)c(C(F)(F)F)c3)C(=O)[C@H]12` [EITM-1709, N-((3aR,4R,5R,7R,7 aS)-2-(4-cyano-3-(trifluoromethyl)phenyl)-4,7-dimethyl-1,3-dioxooctahydro-1H-4,7-epoxyisoindol-5-yl)-1H-indazole-3-carboxamide] displayed an EC50 on AR T878A of 328 nM. At AR T878A (LNCaP), this molecule displayed an Emax of 1%. The “binding to AR in vitro, in words” value at AR is listed as “appeared to accommodate”.
As for `C[C@]12O[C@](C)(C[C@H]1n1cc(CCO)nn1)[C@H]1C(=O)N(c3ccc(C#N)c(C(F)(F)F)c3)C(=O)[C@H]12` [EITM-1706, 4-((3aR,4R,5R,7R,7 aS)-5-(4-(2-hydroxyethyl)-1H-1,2,3-triazol-1-yl)-4,7-dimethyl-1,3-dioxooctahydro-2H-4,7-epoxyisoindol-2-yl)-2-(trifluoromethyl)benzonitrile], on AR T878A, the ED50 entry is given as “No binding” and the Emax result was “No binding”. At AR, the “binding to AR in vitro, in words” value is on record as “did not bind to AR”.
Turning to `CC(=O)c1cc(C(=O)N[C@@H]2C[C@@]3(C)O[C@]2(C)[C@@H]2C(=O)N(c4ccc(C#N)c(C(F)(F)F)c4)C(=O)[C@@H]23)n[nH]1` [EITM-1703, 5-acetyl-N-((3aR,4R,5R,7R,7aS)-2-(4-cyano-3-(trifluoromethyl)phenyl)-4,7-dimethyl-1,3-dioxooctahydro-1H-4,7-epoxyisoindol-5-yl)-1H-pyrazole-3-carboxamide], on AR T878A, the “AR agonism / antagonism” value was “robust antagonistic activities without notable agonism” and the EC50 worked out at 1700 nM. The molecule further gave an Emax on AR T878A (LNCaP) of 20%.
The molecule `C[C@]12O[C@](C)(C[C@H]1NC(=O)c1cc(-c3cccs3)[nH]n1)[C@H]1C(=O)N(c3ccc(C#N)c(C(F)(F)F)c3)C(=O)[C@H]12` [EITM-1710, N-((3aR,4R,5R,7R,7aS)-2-(4-cyano-3-(trifluoromethyl)phenyl)-4,7-dimethyl-1,3-dioxooctahydro-1H-4,7-epoxyisoindol-5-yl)-5-(thiophen-2-yl)-1H-pyrazole-3-carboxamide] had an EC50 at AR T878A of 2430 nM. Also, at AR T878A (LNCaP), the Emax was determined as 8%. For the same molecule, the “binding to AR in vitro, in words” value on AR is reported as “appeared to accommodate”.

Source of the values: patent US12552806B2, “Androgen receptor regulation by small molecule enantiomers” (University of Southern California, priority 2020, dated 2026).
